# Measured values from patent publication US20100221763A1, “Specific Acceptors for Transferases to Saccharides and Method for Obtaining and Using Same” (Health Research, Inc, priority 2005, published 2010).
# Tests used:
# [1] = test system: α1,3-L-FT of colon tumor CC9338; test: α1,3-L-FT assay, colon tumor extract; type: biochemical, human; details: 1 mg protein of the tissue extract
# Description: (§1) Colon tumor tissue (CC9338) and breast tumor tissue (BC9400) were obtained during surgical procedures at Roswell Park Cancer Institute and stored frozen within 1 h at −70° C. The tissues were homogenized at 4° C. with 4 volumes of 0.1M Tris Maleate […] 0.1% NaN3 using kinematica. After adjusting the concentration of Triton X-100 to 2%, these homogenates were mixed in the cold room for 1 h using Speci-Mix (Thermolyne) and then centrifuged at 20,000 g for 1 h at 4° C. The clear fat-free supernatant was stored frozen at −20° C. until use. Aliquots of 10 μL from this extract were used in assays run in duplicates. Glycosyltransferase activity in cell lysate was determined by mixing the lysates with acceptor and radiolabeled donor (monosaccharide) under the reaction conditions detailed below, followed by separation of un-reacted donor from the radioactive product using anionic or hydrophobic chromatography. In all cases, the radioactive content of isolated products was determined by using 3a70 scintillation cocktail (Research Products International, Mount Prospect, Ill.) and a Beckman LS6500 scintillation counter. Controls for each assay contained the reaction mixture with everything except the acceptor. All assays were run in duplicate. […]
# [2] = test system: α1,3-L-FT of breast tumor BC9400; test: α1,3-L-FT assay, breast tumor extract; type: biochemical, human; details: 1 mg protein of the tissue extract
# Description: as §1
# [3] = test system: α1,4-L-FT of colon tumor CC9338; test: α1,4-L-FT assay, colon tumor extract; type: biochemical, human; details: 1 mg protein of the tissue extract
# Description: as §1
# [4] = test system: α1,4-L-FT of breast tumor BC9400; test: α1,4-L-FT assay, breast tumor extract; type: biochemical, human; details: 1 mg protein of the tissue extract
# Description: as §1
# [5] = target: T1, Rat recombinant α2,3(O)ST (Rattus norvegicus, UniProt Q11205); test: Sialyltransferase assay with cloned α2,3(O)ST; type: biochemical; details: for acceptor efficiency for cloned α2,3(O)ST (FIG. 6C): compared to Galβ1,3GalNAcβ1,3Galα-O-Me
# T1 construct: purchased Calbiochem
# T1 sequence (Q11205 1-350): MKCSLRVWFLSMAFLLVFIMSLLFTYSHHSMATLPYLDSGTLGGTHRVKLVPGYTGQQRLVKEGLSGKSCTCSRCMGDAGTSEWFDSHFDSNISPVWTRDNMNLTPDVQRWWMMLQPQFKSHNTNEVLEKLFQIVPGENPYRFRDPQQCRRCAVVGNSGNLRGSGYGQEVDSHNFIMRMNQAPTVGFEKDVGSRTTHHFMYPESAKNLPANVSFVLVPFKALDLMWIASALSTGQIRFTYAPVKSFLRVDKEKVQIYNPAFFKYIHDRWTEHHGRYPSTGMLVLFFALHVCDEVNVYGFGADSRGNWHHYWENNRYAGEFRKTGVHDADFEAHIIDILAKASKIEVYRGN
structure (smiles),measurement,setting,value
"CO[C@H]1[C@H](O[C@H]2[C@H](O)[C@@H](NC(C)=O)C(O)O[C@@H]2CO)O[C@H](CO)[C@H](O)[C@@H]1O (stereo partly shown) [2-O-MeGalβ1,4GlcNAc]","α1,3-L-FT activity: incorporation of radioactive sugar",[1],540.9 CPM × 10^−3
same,"α1,3-L-FT activity: incorporation of radioactive sugar",[2],30.5 CPM × 10^−3
"CO[C@H]1[C@H](O[C@H]2[C@H](O)[C@@H](CO)OC(O)[C@@H]2NC(C)=O)O[C@H](CO)[C@H](O)[C@@H]1O (stereo partly shown) [2-O-MeGalβ1,3GlcNAc]","α1,4-L-FT activity: incorporation of radioactive sugar",[3],727.5 CPM × 10^−3
same,"α1,4-L-FT activity: incorporation of radioactive sugar",[4],4.6 CPM × 10^−3
"CO[C@H]1O[C@H](CO)[C@H](O)[C@H](O[C@@H]2O[C@H](CO)[C@H](O)[C@H](O[C@@H]3O[C@H](C)[C@H](O)[C@H](O)[C@H]3O)[C@H]2NC(C)=O)[C@H]1O [D-Fucβ1,3GalNAcβ1,3Galα-O-Me]","acceptor efficiency for cloned α2,3(O)ST (FIG. 6C)",[5]; 0.15 mM,about 50%
same,"acceptor efficiency for cloned α2,3(O)ST (FIG. 6C)",[5]; 0.75 mM,~100%
same,"Sialyltransferase activity (%) Cloned α2,3(O)ST","[5]; Table I, acceptor 7.5 mM, 100% = 40560 CPM (3-O-MeGalβ1,4GlcNAcβ1,6(Galβ1,3)GalNAcα-O-Bn), listed as D-Fucβ1,3GalNAcβ1,3-Gal-O-Me",115.6%
